Measurements taken from ChEMBL document CHEMBL1201862, “PubChem BioAssay data set” (2004).
Calls of active or inactive are those of the source.

Experiments:
[1] = cytotoxicity in HEK-293T cells, dose response, cytotoxicity control for BCR NF-kB inhibitor project, luminescence, B-cell screen hits (AID 489021); format: functional, cell-based;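 note: HEK-293T cells carrying an NF-kB luciferase reporter; cells exposed to compound for about 14 hours before viability readout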
[2] = molecular target: 26S proteasome non-ATPase regulatory subunit 14 (Homo sapiens, UniProt O00487); assay: inhibition of proteasome subunit RPN11 – biochemical, fluorescence polarization, uHTS hits, confirmation (AID 602368); format: functional
[3] = molecular target: 72 kDa type IV collagenase (Homo sapiens, UniProt P08253); assay: Dose Response validation of uHTS RPN11 inhibitor hits using a MMP-2 Fluorescence assay.; format: functional
Prothrombin = Prothrombin (Bos taurus, UniProt P00735); assay: thrombin inhibition, dose response, biochemical, fluorescence polarization, uHTS hits (AID 602369); format: functional
[4] = molecular target: T1, RNA-binding protein pos-1 (Caenorhabditis elegans, UniProt G5EF15); assay: inhibitors of POS-1/mex-3 RNA binding, dose response, biochemical, fluorescence polarization (AID 1964);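 note: purified POS-1 fused to maltose binding protein made in E. coli; potency of compounds blocking POS-1 binding to fluorescent RNA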
T1 sequence (G5EF15 whole entry): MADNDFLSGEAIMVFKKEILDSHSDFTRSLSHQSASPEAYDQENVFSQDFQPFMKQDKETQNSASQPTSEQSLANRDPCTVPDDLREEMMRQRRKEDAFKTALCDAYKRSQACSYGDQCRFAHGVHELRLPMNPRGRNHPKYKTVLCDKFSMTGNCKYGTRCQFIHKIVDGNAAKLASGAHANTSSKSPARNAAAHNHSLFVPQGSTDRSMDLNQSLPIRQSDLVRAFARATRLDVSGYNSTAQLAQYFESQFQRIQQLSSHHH

[5] = molecular target: T2, Zinc finger protein mex-5 (Caenorhabditis elegans, UniProt Q9XUB2); assay: MEX-5/TCR-2 RNA interaction inhibitors, dose response, biochemical, C. elegans, fluorescence polarization (AID 1960)
T2 sequence (Q9XUB2 whole entry): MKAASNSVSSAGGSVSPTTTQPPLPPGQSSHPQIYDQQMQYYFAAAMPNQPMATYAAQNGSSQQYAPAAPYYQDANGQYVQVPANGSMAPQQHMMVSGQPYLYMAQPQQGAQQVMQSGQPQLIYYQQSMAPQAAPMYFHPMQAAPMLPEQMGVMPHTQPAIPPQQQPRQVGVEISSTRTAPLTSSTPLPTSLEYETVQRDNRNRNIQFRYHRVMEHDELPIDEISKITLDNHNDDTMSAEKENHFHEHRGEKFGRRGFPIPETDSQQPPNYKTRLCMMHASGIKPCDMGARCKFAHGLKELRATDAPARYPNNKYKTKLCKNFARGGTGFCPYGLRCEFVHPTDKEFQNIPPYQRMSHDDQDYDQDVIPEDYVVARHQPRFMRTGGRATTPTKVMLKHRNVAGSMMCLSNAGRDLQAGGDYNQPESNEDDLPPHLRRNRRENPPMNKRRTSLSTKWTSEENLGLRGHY

[6] = molecular target: T3, Hepatocyte nuclear factor 4-alpha (Homo sapiens, UniProt P41235); format: functional, cell-based;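 note: biochemical luminescence-based dose-response counterscreen measuring inhibition of HNF4 dimerization, run alongside a screen for blockers of ABHD5–perilipin-5 interaction; split luciferase complementation of HNF4 fusion proteins in cell lysate measuring dimerization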
T3 sequence (P41235 whole entry): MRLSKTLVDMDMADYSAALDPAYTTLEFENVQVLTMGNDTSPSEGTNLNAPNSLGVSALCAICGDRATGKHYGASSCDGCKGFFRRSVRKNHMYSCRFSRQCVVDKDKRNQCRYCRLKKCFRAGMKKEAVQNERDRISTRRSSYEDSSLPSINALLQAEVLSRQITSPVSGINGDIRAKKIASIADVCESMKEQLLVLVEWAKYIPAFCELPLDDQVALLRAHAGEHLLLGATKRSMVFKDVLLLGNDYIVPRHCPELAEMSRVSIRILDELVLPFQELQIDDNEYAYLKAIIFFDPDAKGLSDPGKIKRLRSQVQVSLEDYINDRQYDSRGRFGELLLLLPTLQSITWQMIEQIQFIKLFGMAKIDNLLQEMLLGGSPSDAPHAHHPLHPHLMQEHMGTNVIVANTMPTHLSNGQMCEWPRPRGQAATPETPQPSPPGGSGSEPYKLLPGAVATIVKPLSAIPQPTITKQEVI

Genome polyprotein = Genome polyprotein (dengue virus type 2, UniProt P29990); assay: Dengue-2 NS5 methyltransferase inhibitors, primary screen, biochemical, confirmation dose response (AID 588689); format: functional
Caspase-3 = molecular target: T4, Caspase-3 (Homo sapiens, UniProt P42574); format: functional;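 note: Dose-response selectivity test against caspase-3 for candidate inhibitors of sentrin-specific proteases (SENPs)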
T4 sequence (P42574 whole entry): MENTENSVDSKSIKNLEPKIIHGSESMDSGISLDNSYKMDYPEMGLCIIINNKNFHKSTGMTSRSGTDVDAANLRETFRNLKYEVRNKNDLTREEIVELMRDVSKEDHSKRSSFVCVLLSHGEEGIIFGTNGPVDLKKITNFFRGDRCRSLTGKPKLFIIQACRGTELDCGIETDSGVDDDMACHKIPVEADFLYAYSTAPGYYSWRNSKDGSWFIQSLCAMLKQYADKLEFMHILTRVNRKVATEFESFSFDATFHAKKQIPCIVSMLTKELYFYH

[7] = molecular target: T5, Sentrin-specific protease 7 (Homo sapiens, UniProt Q9BQF6); format: functional;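 note: Luminescence-based dose-response confirmation of ultra-high-throughput screening hits, measuring inhibition of SENP7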
T5 sequence (Q9BQF6 whole entry): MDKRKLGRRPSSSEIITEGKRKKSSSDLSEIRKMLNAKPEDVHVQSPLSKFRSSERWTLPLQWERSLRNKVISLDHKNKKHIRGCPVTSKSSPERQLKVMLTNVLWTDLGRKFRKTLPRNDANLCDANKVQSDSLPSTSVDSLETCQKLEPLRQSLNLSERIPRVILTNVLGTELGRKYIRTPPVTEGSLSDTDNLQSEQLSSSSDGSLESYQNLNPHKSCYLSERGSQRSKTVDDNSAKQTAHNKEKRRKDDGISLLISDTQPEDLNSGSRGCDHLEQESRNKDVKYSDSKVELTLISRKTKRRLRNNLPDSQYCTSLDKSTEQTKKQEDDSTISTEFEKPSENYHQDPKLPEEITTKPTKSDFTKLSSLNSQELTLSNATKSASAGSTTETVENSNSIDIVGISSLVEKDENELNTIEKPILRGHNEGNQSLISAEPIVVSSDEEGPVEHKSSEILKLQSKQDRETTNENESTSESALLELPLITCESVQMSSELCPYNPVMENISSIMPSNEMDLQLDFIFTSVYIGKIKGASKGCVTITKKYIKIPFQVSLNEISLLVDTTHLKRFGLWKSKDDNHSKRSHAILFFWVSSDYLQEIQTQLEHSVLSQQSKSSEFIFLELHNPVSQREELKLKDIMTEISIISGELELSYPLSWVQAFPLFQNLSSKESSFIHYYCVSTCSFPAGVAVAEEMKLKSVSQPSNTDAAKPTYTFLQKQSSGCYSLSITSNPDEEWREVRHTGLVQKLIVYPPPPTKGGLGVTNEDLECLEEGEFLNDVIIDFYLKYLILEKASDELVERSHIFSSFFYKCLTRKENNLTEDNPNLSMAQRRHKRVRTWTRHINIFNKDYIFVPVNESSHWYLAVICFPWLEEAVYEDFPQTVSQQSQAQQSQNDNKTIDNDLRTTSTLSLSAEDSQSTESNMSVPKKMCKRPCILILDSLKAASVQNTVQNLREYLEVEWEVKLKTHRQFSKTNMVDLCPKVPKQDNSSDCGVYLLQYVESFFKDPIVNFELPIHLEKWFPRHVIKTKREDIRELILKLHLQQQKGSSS

[8] = molecular target: T6, Sentrin-specific protease 6 (Homo sapiens, UniProt Q9GZR1); format: functional;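 note: Luminescence-based dose-response confirmatory assay of SENP6 inhibition, following up an ultra-high-throughput screen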
T6 sequence (Q9GZR1 whole entry): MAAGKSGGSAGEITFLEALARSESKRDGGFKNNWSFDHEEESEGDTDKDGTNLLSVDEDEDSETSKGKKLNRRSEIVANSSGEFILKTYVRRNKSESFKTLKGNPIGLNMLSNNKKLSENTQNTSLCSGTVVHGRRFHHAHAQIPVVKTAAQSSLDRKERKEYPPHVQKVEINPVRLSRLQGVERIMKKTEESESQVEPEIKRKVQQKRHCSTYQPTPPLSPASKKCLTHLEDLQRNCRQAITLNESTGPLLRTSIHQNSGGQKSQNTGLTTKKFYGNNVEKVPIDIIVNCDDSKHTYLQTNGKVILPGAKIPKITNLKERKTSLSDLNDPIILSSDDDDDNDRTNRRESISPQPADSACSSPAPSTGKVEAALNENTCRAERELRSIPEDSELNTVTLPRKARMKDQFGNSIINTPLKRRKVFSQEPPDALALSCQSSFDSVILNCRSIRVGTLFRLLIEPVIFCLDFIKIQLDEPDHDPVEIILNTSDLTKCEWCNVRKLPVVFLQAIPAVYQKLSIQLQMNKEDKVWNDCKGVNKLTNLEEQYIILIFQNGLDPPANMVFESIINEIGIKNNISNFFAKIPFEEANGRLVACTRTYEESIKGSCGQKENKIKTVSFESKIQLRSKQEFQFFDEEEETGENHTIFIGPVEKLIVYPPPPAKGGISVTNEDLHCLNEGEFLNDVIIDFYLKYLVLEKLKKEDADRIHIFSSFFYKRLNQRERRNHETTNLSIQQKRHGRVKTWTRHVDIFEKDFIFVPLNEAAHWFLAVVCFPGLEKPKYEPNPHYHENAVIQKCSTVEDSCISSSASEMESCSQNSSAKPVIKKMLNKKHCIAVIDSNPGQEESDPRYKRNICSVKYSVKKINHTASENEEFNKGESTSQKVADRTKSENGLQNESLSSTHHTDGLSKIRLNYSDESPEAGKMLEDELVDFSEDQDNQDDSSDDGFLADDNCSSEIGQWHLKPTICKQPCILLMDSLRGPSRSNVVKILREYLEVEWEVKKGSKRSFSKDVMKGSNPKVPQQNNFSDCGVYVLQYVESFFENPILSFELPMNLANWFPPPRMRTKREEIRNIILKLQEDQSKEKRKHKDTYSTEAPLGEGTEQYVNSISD

[9] = molecular target: T7, Sentrin-specific protease 8 (Homo sapiens, UniProt Q96LD8); format: functional;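 note: luminescence read-out of SENP8 inhibition, dose-response confirmation following an ultra-high-throughput screen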
T7 sequence (Q96LD8 whole entry): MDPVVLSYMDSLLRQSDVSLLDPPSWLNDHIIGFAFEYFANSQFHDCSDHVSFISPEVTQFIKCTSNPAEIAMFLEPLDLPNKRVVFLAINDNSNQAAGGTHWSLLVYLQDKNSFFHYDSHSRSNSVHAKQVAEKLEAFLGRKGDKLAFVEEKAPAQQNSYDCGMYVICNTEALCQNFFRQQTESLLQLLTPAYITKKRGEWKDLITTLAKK

[10] = molecular target: T8, Endoribonuclease toxin MazF (Escherichia coli K-12, UniProt P0AE70); assay: MazF toxin RNase activators, dose response, biochemical, fluorescence, single-stranded RNA substrate, uHTS hits (AID 588481); format: functional
T8 sequence (P0AE70 whole entry): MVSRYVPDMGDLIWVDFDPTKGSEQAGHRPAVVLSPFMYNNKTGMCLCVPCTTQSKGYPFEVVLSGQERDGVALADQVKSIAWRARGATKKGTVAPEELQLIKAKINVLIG

[11] = molecular target: T8, Endoribonuclease toxin MazF; assay: fluorescent RNA oligo signal without MazF, dose response, counter-screen for MazEF activator project, biochemical, fluorescence, single-stranded RNase substrate (AID 588502); format: functional
Protein skinhead-1 = molecular target: T9, Protein skinhead-1 (Caenorhabditis elegans, UniProt P34707); format: functional
T9 sequence (P34707 whole entry): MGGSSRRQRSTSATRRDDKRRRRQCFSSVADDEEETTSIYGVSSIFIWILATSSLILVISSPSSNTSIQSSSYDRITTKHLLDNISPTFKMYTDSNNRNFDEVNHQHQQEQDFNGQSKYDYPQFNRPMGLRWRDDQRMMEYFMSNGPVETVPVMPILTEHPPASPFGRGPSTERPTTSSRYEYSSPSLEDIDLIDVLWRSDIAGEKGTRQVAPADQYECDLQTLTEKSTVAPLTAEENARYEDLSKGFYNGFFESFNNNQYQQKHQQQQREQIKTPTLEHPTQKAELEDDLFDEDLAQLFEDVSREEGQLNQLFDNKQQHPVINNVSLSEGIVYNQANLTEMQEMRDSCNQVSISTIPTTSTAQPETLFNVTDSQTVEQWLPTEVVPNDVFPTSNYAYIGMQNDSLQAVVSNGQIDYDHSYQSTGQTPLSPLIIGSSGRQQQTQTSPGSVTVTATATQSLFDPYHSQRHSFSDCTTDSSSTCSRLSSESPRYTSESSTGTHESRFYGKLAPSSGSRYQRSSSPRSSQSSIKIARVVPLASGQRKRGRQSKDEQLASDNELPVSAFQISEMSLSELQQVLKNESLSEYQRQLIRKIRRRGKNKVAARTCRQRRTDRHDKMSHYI

26S proteasome non-ATPase regulatory subunit 14, sequence (O00487 whole entry): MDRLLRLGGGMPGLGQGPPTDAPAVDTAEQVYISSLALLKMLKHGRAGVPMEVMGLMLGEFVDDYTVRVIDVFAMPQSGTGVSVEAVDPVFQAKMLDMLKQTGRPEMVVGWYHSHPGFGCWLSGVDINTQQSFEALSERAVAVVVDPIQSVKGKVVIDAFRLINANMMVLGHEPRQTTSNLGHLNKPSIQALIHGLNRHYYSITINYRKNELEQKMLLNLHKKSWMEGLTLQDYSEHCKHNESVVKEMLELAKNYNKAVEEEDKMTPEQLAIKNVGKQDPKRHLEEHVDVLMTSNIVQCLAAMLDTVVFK
72 kDa type IV collagenase, sequence (P08253 whole entry): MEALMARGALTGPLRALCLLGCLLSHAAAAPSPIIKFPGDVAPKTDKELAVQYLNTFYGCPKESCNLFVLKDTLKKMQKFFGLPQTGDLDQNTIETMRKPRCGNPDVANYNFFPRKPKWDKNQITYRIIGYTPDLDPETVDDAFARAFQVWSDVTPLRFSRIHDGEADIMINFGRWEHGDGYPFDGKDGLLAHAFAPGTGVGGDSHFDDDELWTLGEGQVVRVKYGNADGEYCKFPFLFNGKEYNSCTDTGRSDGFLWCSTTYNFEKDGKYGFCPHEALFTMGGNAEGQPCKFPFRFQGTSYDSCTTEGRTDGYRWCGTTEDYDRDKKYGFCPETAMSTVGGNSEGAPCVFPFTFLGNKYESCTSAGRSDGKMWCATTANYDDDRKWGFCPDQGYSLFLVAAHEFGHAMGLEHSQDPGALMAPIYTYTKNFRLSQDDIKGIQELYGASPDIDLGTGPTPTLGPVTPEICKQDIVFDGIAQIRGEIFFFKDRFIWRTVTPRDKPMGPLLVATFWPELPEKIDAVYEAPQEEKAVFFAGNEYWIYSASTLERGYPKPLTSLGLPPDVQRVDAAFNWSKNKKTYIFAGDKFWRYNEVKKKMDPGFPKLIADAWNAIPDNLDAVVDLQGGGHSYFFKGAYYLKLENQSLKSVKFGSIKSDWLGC
Genome polyprotein, sequence (P29990 2492-3391 limits assumed): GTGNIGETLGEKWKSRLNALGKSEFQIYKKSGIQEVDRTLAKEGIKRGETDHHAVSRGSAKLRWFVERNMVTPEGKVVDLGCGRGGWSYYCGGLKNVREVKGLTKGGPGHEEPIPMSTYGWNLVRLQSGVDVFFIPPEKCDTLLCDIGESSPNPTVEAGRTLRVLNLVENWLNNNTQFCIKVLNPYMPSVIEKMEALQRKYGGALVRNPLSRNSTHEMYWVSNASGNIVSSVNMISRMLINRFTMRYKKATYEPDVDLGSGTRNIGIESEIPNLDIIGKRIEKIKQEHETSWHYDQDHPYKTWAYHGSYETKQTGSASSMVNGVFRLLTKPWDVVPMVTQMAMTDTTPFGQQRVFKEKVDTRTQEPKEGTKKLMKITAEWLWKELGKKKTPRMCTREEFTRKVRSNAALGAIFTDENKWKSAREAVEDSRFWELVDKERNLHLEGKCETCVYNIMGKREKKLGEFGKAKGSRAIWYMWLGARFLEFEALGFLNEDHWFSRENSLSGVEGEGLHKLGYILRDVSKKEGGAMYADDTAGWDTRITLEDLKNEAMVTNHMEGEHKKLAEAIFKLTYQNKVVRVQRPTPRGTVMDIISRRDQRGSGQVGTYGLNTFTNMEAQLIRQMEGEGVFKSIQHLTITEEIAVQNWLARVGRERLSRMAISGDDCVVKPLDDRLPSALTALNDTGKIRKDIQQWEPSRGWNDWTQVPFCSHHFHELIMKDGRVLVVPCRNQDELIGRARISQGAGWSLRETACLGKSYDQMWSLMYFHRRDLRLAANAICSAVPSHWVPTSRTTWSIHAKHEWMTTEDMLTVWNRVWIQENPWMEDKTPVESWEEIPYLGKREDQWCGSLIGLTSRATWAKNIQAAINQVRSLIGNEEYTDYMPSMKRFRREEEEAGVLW

For `COc1ccc(/C=C2/SC(=S)N(CCCC(=O)Nc3ccc(O)cc3)C2=O)cc1OC`, which IC50 [1] is on record?
Its IC50 is > 80 µM (inactive).

What about the IC50 [2] of the same molecule?
The IC50 was 25.2 µM (active).

What about the IC50 [3] of the same molecule?
Its IC50 is > 100 µM (inactive).

And the IC50 (Prothrombin)?
Its IC50 is 31.8 µM (active).

What does the source list for `CCOc1ccc(N2C(=O)/C(=C/Nc3ccnn3Cc3ccncc3)c3ccccc3C2=O)cc1`?
EC50 [4]: > 300 µM (not active); EC50 [5]: > 300 µM (not active); IC50 [2]: 23.9 µM (active); IC50 [3]: > 100 µM (inactive); IC50 (Prothrombin): 24.6 µM (active)

With `COc1cc(/C=C2/SC(=S)N(CC(=O)Nc3nc4ccccc4s3)C2=O)cc(OC)c1OC` as the molecule, how does the IC50 [2] read?
Its IC50 is 20.2 µM (active).

And the IC50 [3]?
Its IC50 is > 100 µM (inactive).

What about the IC50 (Prothrombin) of the same molecule?
The IC50 was 23.5 µM (active).

Which IC50 [6] does the source give for `O=C(NCc1ccccc1)C(c1ccc(-c2ccccc2)cc1)n1c(=O)c(-c2ccco2)nc2ccccc21` (stereo not given) here?
Its IC50 is 3.34 µM (active).

What does the source list for `CC(=O)OCC1=C(C(=O)O)N2C(=O)C(NC(=O)CCn3nc(C(F)(F)F)c(Br)c3C3CC3)C2SC1` (stereo not given)?
IC50 (Genome polyprotein): 54.8 µM (active); IC50 [6]: 17.7 µM (inactive)

Which results are given for `CN(C)c1ccc(C(=O)/C=C/c2ccccc2)cc1`?
IC50 (Caspase-3): 8.33 µM (active); IC50 [7]: 5.32 µM (active); IC50 [8]: 11.6 µM (active); IC50 [9]: 14.3 µM (active); EC50 [10]: > 99 µM (inactive); EC50 [11]: > 99 µM (inactive); IC50 (Protein skinhead-1): > 100 µM (inactive)

For `CCCCn1c(/N=C/c2ccc(N(C)C)cc2)nc2ccccc21`, which IC50 [2] is on record?
The IC50 was 5.14 µM (active).

What about the IC50 [3] of the same molecule?
Its IC50 is > 100 µM (inactive).

What about the IC50 (Prothrombin) of the same molecule?
Its IC50 is 7.12 µM (active).
